{"source": "patent US8623911B2", "about": "“Boron-containing small molecules as anti-protozoal agent” (Anacor Pharmaceuticals, Inc., priority 2010, dated 2014)", "key": {"MDCK-MDR1 cells": {"tested_on": "MDCK-MDR1 cells", "experiment": "in vitro", "assay_type": "in vitro ADME, canine", "conditions": "3 μM test compound", "description": "(§1) MDCK-MDR1 cells (Madin-Darby canine kidney cells transfected with the human MDR1 gene) (Dr. Piet Borst, NKI-AVL, Amsterdam, The Netherlands) were seeded at 300,000 cells per well onto microporous, polycarbonate membranes in 12 well Costar Transwell® plates (Corning, Corning, N.Y.). The medium was removed and replaced with fresh cell culture medium approximately 24 hours after plating. Cells attained confluency and were ready for use in the transport assay after 72 hours of incubation.\n(§2) A stock solution of each compound was prepared in DMSO at a concentration of 10 mg/mL. Stock solutions were further diluted in DMSO to a concentration of 1 mM for use in the assay. The final assay concentration of test compound in each incubation mixture was 3 μM and the final concentration of DMSO was 0.3%.\n(§3) Cell cultures were pre-incubated with Transport Medium (TM), consisting of Hanks Balanced Salt Solution (HBSS), 25 mM glucose, and 25 mM HEPES, with and without the known P-gp inhibitor GF120918 (2 μM final assay concentration), for 30-60 minutes prior to the addition of test and control compounds. Following the pre-incubation period, transepithelial electrical resistance (TEER) measurements were taken on each insert to insure the integrity of the monolayer. The range for TEER values was 45-85Ω·cm^2. Transport medium was removed. Fresh transport media (1.5 mL) with or without GF120918 was added to the basolateral chambers. Solutions of the test compound were diluted into TM and added to the appropriate wells in triplicate (400 μL/well) at a final concentration of 3 μM with and without GF120918. The final concentration of DMSO was 0.3%. Control compounds were tested in triplicate at a final concentration of 3 μM. Cell monolayers were incubated with shaking (160 rpm) at 37° C. with 5% CO2 in a humidified incubator for one hour. Following the incubation, all plates were removed from the incubator. Inserts were removed from the plates and TEER measurements were again taken on each insert prior to removing samples for analysis to ensure no degradation of the tight junctions during the assay. An aliquot was taken from each receiver and diluted 1:3 with organic solvent (methanol) to assess transport of each compound across the monolayer. An aliquot was taken from each donor and diluted 1:2 with organic solvent (methanol) and then again 1:50 with matrix (50% methanol/50% TM) to assess mass balance within the study. All samples were assayed for test compound concentrations by LC-MS/MS using electrospray ionization."}, "P-gp (human MDR1)": {"tested_on": "P-gp (human MDR1)", "experiment": "in vitro", "assay_type": "in vitro ADME, canine", "conditions": "dog, MDCK-MDR1; 3 μM test compound; without GF120918; read-out: MDCK-MCR1 Papp", "description": "as §1, §2, §3"}}}
{"smiles": "O=C(Nc1ccc2c(c1)B(O)OCC2)c1ccc(F)cc1C(F)(F)F", "note": "[M1, 4-Fluoro-N-(1-hydroxy-3,4-dihydro-1H-benzo[c][1,2]oxaborinin-7-yl)-2-trifluoromethyl-benzamide]", "values": [{"measurement": "MDCK-MCR1 AQ", "setting": "MDCK-MDR1 cells", "value": "−0.02"}, {"measurement": "Papp at 1 h, 3 µM", "setting": "P-gp (human MDR1)", "value": 55.7, "unit": "×10⁻⁶ cm/s"}]}
